According to the OligoGym collection:
Oligonucleotides are given in HELM: sugar(base)linkage, 5' to 3'; d 2'-deoxyribose, r ribose, m 2'-O-methylribose, p phosphate. ss, as = sense and antisense strand

Molecular target: UBE2D3
Experiment: reporter assay of Huesken 2005
Settings: siRNA
Further: test concentration or dose not given here.

Substance	normalised inhibition (eCFP-eYFP dual reporter)
RNA1{r(A)p.r(C)p.r(U)p.r(A)p.r(C)p.r(C)p.r(C)p.r(C)p.r(U)p.r(U)p.r(C)p.r(A)p.r(A)p.r(A)p.r(C)p.r(C)p.r(A)p.r(C)p.r(C)p.d(T)p.d(T)}|RNA2{r(G)p.r(G)p.r(U)p.r(G)p.r(G)p.r(U)p.r(U)p.r(U)p.r(G)p.r(A)p.r(A)p.r(G)p.r(G)p.r(G)p.r(G)p.r(U)p.r(A)p.r(G)p.r(U)p.d(C)p.d(T)}$$$RNA1{StrandType:ss}|RNA2{StrandType:as}$	63.1%
RNA1{r(A)p.r(G)p.r(C)p.r(A)p.r(C)p.r(A)p.r(A)p.r(U)p.r(G)p.r(U)p.r(U)p.r(C)p.r(U)p.r(G)p.r(C)p.r(A)p.r(G)p.r(G)p.r(U)p.d(T)p.d(T)}|RNA2{r(A)p.r(C)p.r(C)p.r(U)p.r(G)p.r(C)p.r(A)p.r(G)p.r(A)p.r(A)p.r(C)p.r(A)p.r(U)p.r(U)p.r(G)p.r(U)p.r(G)p.r(C)p.r(U)p.d(G)p.d(G)}$$$RNA1{StrandType:ss}|RNA2{StrandType:as}$	102%
RNA1{r(A)p.r(G)p.r(C)p.r(A)p.r(U)p.r(U)p.r(U)p.r(G)p.r(U)p.r(C)p.r(U)p.r(C)p.r(G)p.r(A)p.r(U)p.r(A)p.r(U)p.r(U)p.r(C)p.d(T)p.d(T)}|RNA2{r(G)p.r(A)p.r(A)p.r(U)p.r(A)p.r(U)p.r(C)p.r(G)p.r(A)p.r(G)p.r(A)p.r(C)p.r(A)p.r(A)p.r(A)p.r(U)p.r(G)p.r(C)p.r(U)p.d(G)p.d(C)}$$$RNA1{StrandType:ss}|RNA2{StrandType:as}$	79.2%
RNA1{r(A)p.r(G)p.r(G)p.r(U)p.r(U)p.r(G)p.r(C)p.r(A)p.r(U)p.r(U)p.r(U)p.r(A)p.r(C)p.r(A)p.r(A)p.r(C)p.r(A)p.r(A)p.r(G)p.d(T)p.d(T)}|RNA2{r(C)p.r(U)p.r(U)p.r(G)p.r(U)p.r(U)p.r(G)p.r(U)p.r(A)p.r(A)p.r(A)p.r(U)p.r(G)p.r(C)p.r(A)p.r(A)p.r(C)p.r(C)p.r(U)p.d(T)p.d(A)}$$$RNA1{StrandType:ss}|RNA2{StrandType:as}$	86.6%
RNA1{r(A)p.r(U)p.r(C)p.r(A)p.r(U)p.r(C)p.r(C)p.r(A)p.r(A)p.r(A)p.r(U)p.r(A)p.r(U)p.r(U)p.r(A)p.r(A)p.r(C)p.r(A)p.r(G)p.d(T)p.d(T)}|RNA2{r(C)p.r(U)p.r(G)p.r(U)p.r(U)p.r(A)p.r(A)p.r(U)p.r(A)p.r(U)p.r(U)p.r(U)p.r(G)p.r(G)p.r(A)p.r(U)p.r(G)p.r(A)p.r(U)p.d(A)p.d(A)}$$$RNA1{StrandType:ss}|RNA2{StrandType:as}$	32%
RNA1{r(A)p.r(U)p.r(C)p.r(C)p.r(A)p.r(A)p.r(A)p.r(C)p.r(C)p.r(C)p.r(A)p.r(G)p.r(A)p.r(U)p.r(G)p.r(A)p.r(C)p.r(C)p.r(C)p.d(T)p.d(T)}|RNA2{r(G)p.r(G)p.r(G)p.r(U)p.r(C)p.r(A)p.r(U)p.r(C)p.r(U)p.r(G)p.r(G)p.r(G)p.r(U)p.r(U)p.r(U)p.r(G)p.r(G)p.r(A)p.r(U)p.d(C)p.d(A)}$$$RNA1{StrandType:ss}|RNA2{StrandType:as}$	44.5%
RNA1{r(A)p.r(U)p.r(C)p.r(C)p.r(A)p.r(U)p.r(U)p.r(U)p.r(G)p.r(U)p.r(U)p.r(C)p.r(A)p.r(C)p.r(U)p.r(G)p.r(C)p.r(U)p.r(A)p.d(T)p.d(T)}|RNA2{r(U)p.r(A)p.r(G)p.r(C)p.r(A)p.r(G)p.r(U)p.r(G)p.r(A)p.r(A)p.r(C)p.r(A)p.r(A)p.r(A)p.r(U)p.r(G)p.r(G)p.r(A)p.r(U)p.d(A)p.d(A)}$$$RNA1{StrandType:ss}|RNA2{StrandType:as}$	96.1%
RNA1{r(A)p.r(U)p.r(G)p.r(U)p.r(U)p.r(U)p.r(C)p.r(A)p.r(U)p.r(U)p.r(G)p.r(G)p.r(C)p.r(A)p.r(A)p.r(G)p.r(C)p.r(C)p.r(A)p.d(T)p.d(T)}|RNA2{r(U)p.r(G)p.r(G)p.r(C)p.r(U)p.r(U)p.r(G)p.r(C)p.r(C)p.r(A)p.r(A)p.r(U)p.r(G)p.r(A)p.r(A)p.r(A)p.r(C)p.r(A)p.r(U)p.d(A)p.d(T)}$$$RNA1{StrandType:ss}|RNA2{StrandType:as}$	90.7%
RNA1{r(A)p.r(U)p.r(U)p.r(A)p.r(A)p.r(C)p.r(A)p.r(G)p.r(U)p.r(A)p.r(A)p.r(U)p.r(G)p.r(G)p.r(C)p.r(A)p.r(G)p.r(C)p.r(A)p.d(T)p.d(T)}|RNA2{r(U)p.r(G)p.r(C)p.r(U)p.r(G)p.r(C)p.r(C)p.r(A)p.r(U)p.r(U)p.r(A)p.r(C)p.r(U)p.r(G)p.r(U)p.r(U)p.r(A)p.r(A)p.r(U)p.d(A)p.d(T)}$$$RNA1{StrandType:ss}|RNA2{StrandType:as}$	57.6%
RNA1{r(A)p.r(U)p.r(U)p.r(A)p.r(U)p.r(G)p.r(G)p.r(G)p.r(A)p.r(C)p.r(C)p.r(U)p.r(A)p.r(A)p.r(U)p.r(G)p.r(A)p.r(C)p.r(A)p.d(T)p.d(T)}|RNA2{r(U)p.r(G)p.r(U)p.r(C)p.r(A)p.r(U)p.r(U)p.r(A)p.r(G)p.r(G)p.r(U)p.r(C)p.r(C)p.r(C)p.r(A)p.r(U)p.r(A)p.r(A)p.r(U)p.d(T)p.d(G)}$$$RNA1{StrandType:ss}|RNA2{StrandType:as}$	64.1%
RNA1{r(A)p.r(U)p.r(U)p.r(U)p.r(A)p.r(C)p.r(A)p.r(A)p.r(C)p.r(A)p.r(A)p.r(G)p.r(A)p.r(A)p.r(U)p.r(U)p.r(U)p.r(A)p.r(U)p.d(T)p.d(T)}|RNA2{r(A)p.r(U)p.r(A)p.r(A)p.r(A)p.r(U)p.r(U)p.r(C)p.r(U)p.r(U)p.r(G)p.r(U)p.r(U)p.r(G)p.r(U)p.r(A)p.r(A)p.r(A)p.r(U)p.d(G)p.d(C)}$$$RNA1{StrandType:ss}|RNA2{StrandType:as}$	74.4%
RNA1{r(A)p.r(U)p.r(U)p.r(U)p.r(A)p.r(U)p.r(C)p.r(A)p.r(U)p.r(C)p.r(C)p.r(A)p.r(A)p.r(A)p.r(U)p.r(A)p.r(U)p.r(U)p.r(A)p.d(T)p.d(T)}|RNA2{r(U)p.r(A)p.r(A)p.r(U)p.r(A)p.r(U)p.r(U)p.r(U)p.r(G)p.r(G)p.r(A)p.r(U)p.r(G)p.r(A)p.r(U)p.r(A)p.r(A)p.r(A)p.r(U)p.d(T)p.d(C)}$$$RNA1{StrandType:ss}|RNA2{StrandType:as}$	76.2%
RNA1{r(C)p.r(A)p.r(A)p.r(G)p.r(A)p.r(A)p.r(U)p.r(U)p.r(U)p.r(A)p.r(U)p.r(C)p.r(A)p.r(U)p.r(C)p.r(C)p.r(A)p.r(A)p.r(A)p.d(T)p.d(T)}|RNA2{r(U)p.r(U)p.r(U)p.r(G)p.r(G)p.r(A)p.r(U)p.r(G)p.r(A)p.r(U)p.r(A)p.r(A)p.r(A)p.r(U)p.r(U)p.r(C)p.r(U)p.r(U)p.r(G)p.d(T)p.d(T)}$$$RNA1{StrandType:ss}|RNA2{StrandType:as}$	93.1%
RNA1{r(C)p.r(A)p.r(A)p.r(G)p.r(C)p.r(C)p.r(A)p.r(C)p.r(A)p.r(A)p.r(U)p.r(U)p.r(A)p.r(U)p.r(G)p.r(G)p.r(G)p.r(A)p.r(C)p.d(T)p.d(T)}|RNA2{r(G)p.r(U)p.r(C)p.r(C)p.r(C)p.r(A)p.r(U)p.r(A)p.r(A)p.r(U)p.r(U)p.r(G)p.r(U)p.r(G)p.r(G)p.r(C)p.r(U)p.r(U)p.r(G)p.d(C)p.d(C)}$$$RNA1{StrandType:ss}|RNA2{StrandType:as}$	35.2%
